# Marks after values point to notes of the source that are not given here.
# Tests used:
# Format in all cases: cell-based
# [1] = molecular target: CDK8 (Homo sapiens, UniProt P49336); experiment: CDK8 degradation in HEK-293 cells (Western blot, normalized by GAPDH); parameters: endogenous in cells; host or cells: HEK-293; conditions: for % CDK8 remaining: 24 hours; for induction of CDK8 degradation by single agents: HP8580 200 nM and 1 μM, pomalidomide 5 μM, Senexin C 5 μM
# Description: Table 1 presents the structures of 35 different chimeras that have been synthesized, together with their effects (at 1 μM or 0.3 μM concentrations) on CDK8 degradation in HEK-293 cells. The synthesis schemes of all the compounds are described below. CDK8 degradation was measured by Western blot analysis of RIPA lysates of HEK-293cells treated with or without the test compound for 24 hours, using antibodies against CDK8 (Santa Cruz sc-1521) and housekeeping protein GAPDH (Santa Cruz sc-32233) (loading control) Protein bands on immunoblotted PVDF membranes were visualized with Western Lighting Plus ECL detection reagent (Perkin Elmer, Waltham, MA, USA) using ChemiDoc Touch™ (Bio-Rad). Image processing and densitometry analysis were performed using ImageLab software (Bio-Rad) to quantify the CDK8 protein levels (normalized by GAPDH) and evaluate the effects of compound treatment.
# (§1) FIGS. 2F and 2G show the effects of different concentrations of potent Senexin C- and BI-1347-based PROTACs on CDK8 and CDK19 degradation in HEK-293cells. Based on these assays, we calculated DC50 values that correspond to PROTAC concentrations inducing degradation of CDK8 and CDK19 to the half of protein level in untreated cells. The corresponding CDK8 DC50 values were 46 nM for IA7843, 6.6 nM for IA7882 and 2.8 nM for IA7886, and CDK19 DC50 values were 1 μM for IA7843, 25 nM for IA7882 and 10 nM for IA7886.
# [2] = molecular target: CDK19 (Homo sapiens, UniProt Q9BWU1); experiment: CDK19 degradation in HEK-293 cells (Western blot); parameters: PROTACs on CDK8 and CDK19 degradation in HEK-293cells; endogenous in cells; host or cells: HEK-293; conditions: concentration degrading CDK19 to half of level in untreated cells
# Sequence of CDK19 (Q9BWU1 whole entry): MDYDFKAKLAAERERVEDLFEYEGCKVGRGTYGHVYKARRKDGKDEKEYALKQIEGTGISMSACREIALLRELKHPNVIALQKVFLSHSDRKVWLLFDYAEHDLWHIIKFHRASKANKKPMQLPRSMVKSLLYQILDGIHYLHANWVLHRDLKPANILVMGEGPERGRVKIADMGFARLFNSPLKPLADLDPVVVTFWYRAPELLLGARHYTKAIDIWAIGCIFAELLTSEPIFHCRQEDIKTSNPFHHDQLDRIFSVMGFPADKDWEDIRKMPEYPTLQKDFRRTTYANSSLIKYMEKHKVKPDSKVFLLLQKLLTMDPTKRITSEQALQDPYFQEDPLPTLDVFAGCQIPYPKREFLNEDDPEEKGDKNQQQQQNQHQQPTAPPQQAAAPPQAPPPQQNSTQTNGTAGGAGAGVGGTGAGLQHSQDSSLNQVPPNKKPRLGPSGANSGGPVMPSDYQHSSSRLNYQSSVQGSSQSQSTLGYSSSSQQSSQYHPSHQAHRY
# Sequence of CDK19 (P24863 whole entry partner): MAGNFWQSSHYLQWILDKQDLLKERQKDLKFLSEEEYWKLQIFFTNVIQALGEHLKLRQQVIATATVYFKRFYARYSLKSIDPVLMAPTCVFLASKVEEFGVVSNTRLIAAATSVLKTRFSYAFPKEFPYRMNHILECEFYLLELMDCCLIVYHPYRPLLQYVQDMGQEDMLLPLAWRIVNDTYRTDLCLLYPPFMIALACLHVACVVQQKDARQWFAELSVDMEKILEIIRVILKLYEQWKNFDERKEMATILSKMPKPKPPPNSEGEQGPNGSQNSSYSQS
# Excerpt: Furthermore, the degradation of both CDK8 and CDK19 by the PROTACs is also seen to decrease the levels of their binding partner cyclin C (CCNC) (FIG. 2B, D, E), which is known to be protected from proteolytic degradation by its interaction with CDK8 (Barette et al., 2001).
# as §1
# [3] = tested on: SK-MM-2 cells; experiment: SK-MM-2 multiple myeloma cell growth over 20 days continuous treatment; conditions: BI1347 200 nM, Senexin C 1 μM, IA7886 200 nM, IA7843 1 μM
# Description: The following CDK8/19 kinase inhibitors were tested for their effects on MM cell lines over 20 days continuous treatment: CDK8/19 kinase inhibitors BI1347 (200 nM) and Senexin C (1 μM), BI1347-derived PROTAC IA7886 (200 nM) and Senexin C-derived PROTAC IA7843 (1 μM). 1-4 million cells were treated with vehicle control (0.1% DMSO), or CDK8/19 kinase inhibitors or PROTACs for 20 days. Every 4 days, cells were counted using BioRAD TC20 Automated Cell Counter with trypan blue staining, and the same number of cells were passaged to a new T25 flask to propagate under the same treatment conditions.
# Sequence of CDK8 (P49336 whole entry): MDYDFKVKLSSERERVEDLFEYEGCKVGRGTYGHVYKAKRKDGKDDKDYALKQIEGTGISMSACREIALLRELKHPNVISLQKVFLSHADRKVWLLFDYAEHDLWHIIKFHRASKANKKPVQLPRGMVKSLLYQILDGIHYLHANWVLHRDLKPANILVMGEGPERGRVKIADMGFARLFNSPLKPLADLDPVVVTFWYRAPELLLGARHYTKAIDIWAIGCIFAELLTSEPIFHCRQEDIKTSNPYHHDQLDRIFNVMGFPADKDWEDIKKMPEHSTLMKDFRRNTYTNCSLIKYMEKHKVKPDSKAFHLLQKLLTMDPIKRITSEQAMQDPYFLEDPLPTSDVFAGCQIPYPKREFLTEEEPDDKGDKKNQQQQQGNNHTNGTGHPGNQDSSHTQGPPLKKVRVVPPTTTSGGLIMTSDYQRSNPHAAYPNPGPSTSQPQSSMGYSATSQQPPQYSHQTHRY
# Sequence of CDK8 (P24863 whole entry partner): as the sequence (P24863 whole entry partner) above
smiles,measurement,setting,value
N#Cc1ccc2nccc(NCCc3ccc4cc(C(=O)N5CCN(C(=O)CCCCCCCCCCNC(=O)CCCNc6cccc7c6C(=O)N(C6CCC(=O)NC6=O)C7=O)CC5)ccc4c3)c2c1 (stereo not shown) [IA7843],% CDK8 remaining,"[1]; HEK-293 cells, tested at 1 μM",13%
same,DC50,"[1]; HEK-293 cells, concentration degrading CDK8 to half of level in untreated cells",46 nM
same,DC50,[2],1000 nM
"CN1CCN(C(=O)c2ccc3cc(CCNc4ccnc5ccc(C#N)cc45)ccc3c2)CC1 [Senexin C, reference compound]",induction of CDK8 degradation by single agents,[1]; HEK-293,but not pomalidomide or Senexin C induced CDK8 degradation
same,"growth inhibition over 20 days, order of efficacy",[3],BI1347<IA7886<Senexin C<IA7843
"N#Cc1ccc2nccc(NCCc3ccc4cc(C(=O)N5CCN(C(=O)CCOCCOCCOCCOCCOCCOCCNc6cccc7c6C(=O)N(C6CCC(=O)NC6=O)C7=O)CC5)ccc4c3)c2c1 (stereo not shown) [IA7813, 4-[2-[6-[4-[3-[2-[2-[2-[2-[2-[2-[[2-(2,6-dioxo-3-piperidyl)-1,3-dioxo-isoindolin-4-yl]amino]ethoxy]ethoxy]ethoxy]ethoxy]ethoxy]ethoxy]propanoyl]piperazine-1-carbonyl]-2-naphthyl]ethylamino]quinoline-6-carbonitrile]",% CDK8 remaining,"[1]; HEK-293 cells, tested at 1 μM",28%
"N#Cc1ccc2nccc(NCCc3ccc4cc(C(=O)N5CCN(C(=O)CCOCCOCCOCCNC(=O)CCNc6cccc7c6C(=O)N(C6CCC(=O)NC6=O)C7=O)CC5)ccc4c3)c2c1 (stereo not shown) [IA7830, N-[2-[2-[2-[3-[4-[6-[2-[(6-cyano-4-quinolyl)amino]ethyl]naphthalene-2-carbonyl]piperazin-1-yl]-3-oxo-propoxy]ethoxy]ethoxy]ethyl]-3-[[2-(2,6-dioxo-3-piperidyl)-1,3-dioxo-isoindolin-4-yl]amino]propanamide]",% CDK8 remaining,"[1]; HEK-293 cells, tested at 1 μM",65%
"N#Cc1ccc2nccc(NCCc3ccc4cc(C(=O)N5CCN(C(=O)CCCCCCCCCCNC(=O)CCCNc6cccc7c6CN(C6CCC(=O)NC6=O)C7=O)CC5)ccc4c3)c2c1 (stereo not shown) [IA7869, N-[11-[4-[6-[2-[(6-cyano-4-quinolyl)amino]ethyl]naphthalene-2-carbonyl]piperazin-1-yl]-11-oxo-undecyl]-4-[[2-(2,6-dioxo-3-piperidyl)-1-oxo-isoindolin-4-yl]amino]butanamide]",% CDK8 remaining,"[1]; HEK-293 cells, tested at 1 μM",43%
"N#Cc1ccc2nccc(NCCc3ccc4cc(C(=O)N5CCN(C(=O)CCCCCCCCCCNC(=O)CCCNc6ccc7c(c6)C(=O)N(C6CCC(=O)NC6=O)C7=O)CC5)ccc4c3)c2c1 (stereo not shown) [IA7868, N-[11-[4-[6-[2-[(6-cyano-4-quinolyl)amino]ethyl]naphthalene-2-carbonyl]piperazin-1-yl]-11-oxo-undecyl]-4-[[2-(2,6-dioxo-3-piperidyl)-1,3-dioxo-isoindolin-5-yl]amino]butanamide]",% CDK8 remaining,"[1]; HEK-293 cells, tested at 1 μM",39%
"O=C(Cn1cc(-c2ccc(-c3cncc4ccccc34)cc2)cn1)NCCOCCOCCOCCOCCNc1cccc2c1C(=O)N(C1CCC(=O)NC1=O)C2=O (stereo not shown) [IA7891, N-[2-[2-[2-[2-[2-[[2-(2,6-dioxo-3-piperidyl)-1,3-dioxo-isoindolin-4-yl]amino]ethoxy]ethoxy]ethoxy]ethoxy]ethyl]-2-[4-[4-(4-isoquinolyl)phenyl]pyrazol-1-yl]acetamide]",% CDK8 remaining,"[1]; HEK-293 cells, tested at 1 μM",100%
"N#Cc1ccc2nccc(NCCc3ccc4cc(C(=O)N5CCN(C(=O)CCCCCCCCCCCNC(=O)CCNc6cccc7c6C(=O)N(C6CCC(=O)NC6=O)C7=O)CC5)ccc4c3)c2c1 (stereo not shown) [IA7848, N-[12-[4-[6-[2-[(6-cyano-4-quinolyl)amino]ethyl]naphthalene-2-carbonyl]piperazin-1-yl]-12-oxo-dodecyl]-3-[[2-(2,6-dioxo-3-piperidyl)-1,3-dioxo-isoindolin-4-yl]amino]propanamide]",% CDK8 remaining,"[1]; HEK-293 cells, tested at 1 μM",31%
"N#Cc1ccc2nccc(NCCc3ccc4cc(C(=O)N5CCN(C(=O)CCCCCCCCCNC(=O)CCCCNc6cccc7c6C(=O)N(C6CCC(=O)NC6=O)C7=O)CC5)ccc4c3)c2c1 (stereo not shown) [IA7861, N-[10-[4-[6-[2-[(6-cyano-4-quinolyl)amino]ethyl]naphthalene-2-carbonyl]piperazin-1-yl]-10-oxo-decyl]-5-[[2-(2,6-dioxo-3-piperidyl)-1,3-dioxo-isoindolin-4-yl]amino]pentanamide]",% CDK8 remaining,"[1]; HEK-293 cells, tested at 1 μM",19%
"CN(CCCNC(=O)CCOCCOCCNc1cccc2c1C(=O)N(C1CCC(=O)NC1=O)C2=O)C(=O)c1ccc(N2CCCN(c3ccnc4sc(C(N)=O)c(N)c34)CC2)cc1 (stereo not shown) [HP8578, 3-amino-4-[4-[4-[3-[3-[2-[2-[[2-(2,6-dioxo-3-piperidyl)-1,3-dioxo-isoindolin-4-yl]amino]ethoxy]ethoxy]propanoylamino]propyl-methyl-carbamoyl]phenyl]-1,4-diazepan-1-yl]thieno[2,3-b]pyridine-2-carboxamide]",% CDK8 remaining,"[1]; HEK-293 cells, tested at 1 μM",82%
"CC(C)(C)C(=O)OCN1C(=O)CCC(N2C(=O)c3cccc(NCCCC(=O)NCCCCCCCCCCC(=O)N4CCN(C(=O)Cn5cc(-c6ccc(-c7cncc8ccccc78)cc6)cn5)CC4)c3C2=O)C1=O (stereo not shown) [IA7893, (3-(4-((4-((11-(4-(2-(4-(4-(isoquinolin-4-yl)phenyl)-1H-pyrazol-1-yl)acetyl)piperazin-1-yl)-11-oxoundecyl)amino)-4-oxobutyl)amino)-1,3-dioxoisoindolin-2-yl)-2,6-dioxopiperidin-1-yl)methyl pivalate]",% CDK8 remaining,"[1]; HEK-293 cells, tested at 0.3 μM (marked *)",9%*
same,CDK8 degradation (in words),"[1]; HEK-293 cells, Western blot",highly potent degrader
"N#Cc1ccc2nccc(NCCc3ccc4cc(C(=O)N5CCN(C(=O)CCCCCCCCC(=O)NCCCCCNc6cccc7c6C(=O)N(C6CCC(=O)NC6=O)C7=O)CC5)ccc4c3)c2c1 (stereo not shown) [IA7840, 10-[4-[6-[2-[(6-cyano-4-quinolyl)amino]ethyl]naphthalene-2-carbonyl]piperazin-1-yl]-N-[5-[[2-(2,6-dioxo-3-piperidyl)-1,3-dioxo-isoindolin-4-yl]amino]pentyl]-10-oxo-decanamide]",% CDK8 remaining,"[1]; HEK-293 cells, tested at 1 μM",55%
"NC(=O)c1sc2nccc(N3CCCN(c4ccc(C(=O)N5CCN(C(=O)CCOCCOCCOCCOCCNc6cccc7c6C(=O)N(C6CCC(=O)NC6=O)C7=O)CC5)cc4)CC3)c2c1N (stereo not shown) [IA7892, 3-amino-4-[4-[4-[4-[3-[2-[2-[2-[2-[[2-(2,6-dioxo-3-piperidyl)-1,3-dioxo-isoindolin-4-yl]amino]ethoxy]ethoxy]ethoxy]ethoxy]propanoyl]piperazine-1-carbonyl]phenyl]-1,4-diazepan-1-yl]thieno[2,3-b]pyridine-2-carboxamide]",% CDK8 remaining,"[1]; HEK-293 cells, tested at 1 μM",41%
"N#Cc1ccc2nccc(NCCc3ccc4cc(C(=O)N5CCN(C(=O)CCOCCOCCOCCOCCNc6cccc7c6C(=O)N(C6CCC(=O)NC6=O)C7=O)CC5)ccc4c3)c2c1 (stereo not shown) [HP8580, 4-[2-[6-[4-[3-[2-[2-[2-[2-[[2-(2,6-dioxo-3-piperidyl)-1,3-dioxo-isoindolin-4-yl]amino]ethoxy]ethoxy]ethoxy]ethoxy]propanoyl]piperazine-1-carbonyl]-2-naphthyl]ethylamino]quinoline-6-carbonitrile]",induction of CDK8 degradation by single agents,[1]; HEK-293,induced CDK8 degradation
same,effect of co-treatment on HP8580-mediated CDK8 degradation,"[1]; HEK-293, with MG132 5 μM, pomalidomide 5 μM or Senexin C 5 μM",reversed by proteasome inhibition with MG132 as well as by competition with pomalidomide or Senexin C
same,% CDK8 remaining,"[1]; HEK-293 cells, tested at 1 μM",20%
"N#Cc1ccc2nccc(NCCc3ccc4cc(C(=O)N5CCN(C(=O)CCOCCOCCNc6cccc7c6C(=O)N(C6CCC(=O)NC6=O)C7=O)CC5)ccc4c3)c2c1 (stereo not shown) [HV5958, 4-[2-[6-[4-[3-[2-[2-[[2-(2,6-dioxo-3-piperidyl)-1,3-dioxo-isoindolin-4-yl]amino]ethoxy]ethoxy]propanoyl]piperazine-1-carbonyl]-2-naphthyl]ethylamino]quinoline-6-carbonitrile]",% CDK8 remaining,"[1]; HEK-293 cells, tested at 1 μM",27%
"N#Cc1ccc2nccc(NCCc3ccc4cc(C(=O)N5CCN(C(=O)CCCCCCCCCNC(=O)COc6ccc7c(c6)CCCN7C(=O)CCl)CC5)ccc4c3)c2c1 [IA7875, 2-[[1-(2-chloroacetyl)-3,4-dihydro-2H-quinolin-6-yl]oxy]-N-[10-[4-[6-[2-[(6-cyano-4-quinolyl)amino]ethyl]naphthalene-2-carbonyl]piperazin-1-yl]-10-oxo-decyl]acetamide]",% CDK8 remaining,"[1]; HEK-293 cells, tested at 1 μM",100%
